ChEMBL document CHEMBL4420080, “Inhibitors of sox18 protein activity for treating angiogenesis- and/or lymphangiogenesis-related diseases” (2018)
Activity calls are given as the source filed them. No cut-off for these calls is given here.

Columns and labels:
[1] = molecular target: NAD-dependent protein deacetylase sirtuin-1 (Homo sapiens) (UniProt Q96EB6); assay: Inhibition of human Sirtuin1 at 10 uM relative to control
Danio rerio [2] = assay: Induction of arterial and venous genes dys-regulation in zebrafish larvae harboring fli1 a:eGFP,-6.5kdrl:mCherry assessed as effect on efnb2a gene expression at 1.5 uM dosed starting from 16 hpf and measured at 24 and 48 hpf by qRT-PCR analysis; format: functional, organism-based
[3] = molecular target: Protein c-Fos (Homo sapiens) (UniProt P01100); assay: Inhibition of c-FOS in HUVEC assessed as reduction of c-FOS transcriptional activity by genome-wide RNA-seq and ChlP-seq analysis; format: cell-based
Protein c-Fos (Homo sapiens), sequence (P01100 whole entry): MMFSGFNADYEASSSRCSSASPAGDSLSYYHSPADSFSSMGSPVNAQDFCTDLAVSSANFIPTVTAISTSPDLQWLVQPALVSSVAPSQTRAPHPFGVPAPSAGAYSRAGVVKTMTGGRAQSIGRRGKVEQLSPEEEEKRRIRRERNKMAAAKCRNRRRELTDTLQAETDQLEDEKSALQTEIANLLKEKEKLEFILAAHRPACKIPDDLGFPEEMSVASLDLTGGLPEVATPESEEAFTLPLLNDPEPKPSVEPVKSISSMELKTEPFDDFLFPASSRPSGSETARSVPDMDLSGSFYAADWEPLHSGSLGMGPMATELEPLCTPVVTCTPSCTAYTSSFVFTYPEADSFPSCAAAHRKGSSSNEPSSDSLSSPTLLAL

4T1.2 [4] = assay: Antitumor activity against mouse 4T1.2 cells implanted in BALB/c mouse assessed as reduction in mean number of lung metastases at 25 mg/kg/day for 10 days measured at day 28 after tumor inoculation relative to control; format: functional; parameters: scale not given: the % may be the effect or the level left
Rattus norvegicus = species: Rattus norvegicus; assay: Inhibition of rat rolipram binding site at 10 uM relative to control
[5] = Plasma concentration in BALB/c mouse xenografted with mouse 4T1.2 cells at 25 mg/kg/day for 10 days measured at day 12; format: ADME, organism-based
[6] = molecular target: Beta-1 adrenergic receptor (Homo sapiens) (UniProt P08588); assay: Inhibition of human adrenergic beta1 receptor at 10 uM relative to control
Beta-1 adrenergic receptor (Homo sapiens), sequence (P08588 whole entry, looked up): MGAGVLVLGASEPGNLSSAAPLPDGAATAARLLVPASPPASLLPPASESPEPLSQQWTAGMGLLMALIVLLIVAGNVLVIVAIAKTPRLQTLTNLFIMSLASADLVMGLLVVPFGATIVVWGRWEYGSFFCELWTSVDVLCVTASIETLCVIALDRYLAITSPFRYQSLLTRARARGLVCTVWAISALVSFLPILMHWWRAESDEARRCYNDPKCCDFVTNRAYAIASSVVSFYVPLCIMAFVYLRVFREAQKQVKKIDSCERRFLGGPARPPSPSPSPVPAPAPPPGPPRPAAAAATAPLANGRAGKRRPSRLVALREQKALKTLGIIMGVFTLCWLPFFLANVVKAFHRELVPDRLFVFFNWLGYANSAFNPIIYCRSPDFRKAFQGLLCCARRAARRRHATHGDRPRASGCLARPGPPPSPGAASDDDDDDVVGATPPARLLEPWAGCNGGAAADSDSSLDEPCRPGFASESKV

[7] = molecular target: Histone deacetylase 3 (Homo sapiens) (UniProt O15379); assay: Inhibition of human HDAC3 at 10 uM relative to control
[8] = molecular target: Muscarinic acetylcholine receptor M3 (Homo sapiens) (UniProt P20309); assay: Inhibition of human muscarinic M3 receptor at 10 uM relative to control
[9] = molecular target: 5-hydroxytryptamine receptor 2B (Homo sapiens) (UniProt P41595); assay: Inhibition of human 5HT2B receptor at 10 uM relative to control
5-hydroxytryptamine receptor 2B (Homo sapiens), sequence (P41595 whole entry): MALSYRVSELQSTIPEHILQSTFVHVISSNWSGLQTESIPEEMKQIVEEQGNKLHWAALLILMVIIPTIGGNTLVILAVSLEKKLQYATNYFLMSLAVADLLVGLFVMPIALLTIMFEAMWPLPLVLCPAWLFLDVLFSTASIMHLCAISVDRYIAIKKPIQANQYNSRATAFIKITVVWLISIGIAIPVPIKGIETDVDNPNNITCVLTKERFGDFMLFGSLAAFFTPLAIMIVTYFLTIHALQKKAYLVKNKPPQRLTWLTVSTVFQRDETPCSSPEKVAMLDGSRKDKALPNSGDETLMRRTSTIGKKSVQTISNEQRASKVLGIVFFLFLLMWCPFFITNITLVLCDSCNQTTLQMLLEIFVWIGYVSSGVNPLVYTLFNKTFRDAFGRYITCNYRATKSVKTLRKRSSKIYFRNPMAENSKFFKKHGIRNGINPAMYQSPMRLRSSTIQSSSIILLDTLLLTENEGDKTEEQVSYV

Danio rerio [10] = assay: Induction of arterial and venous genes dys-regulation in zebrafish larvae harboring fli1 a:eGFP,-6.5kdrl:mCherry assessed as effect on notch1b gene expression at 1.5 uM dosed starting from 16 hpf and measured at 24 and 48 hpf by qRT-PCR analysis; format: functional, organism-based
[11] = molecular target: Alpha-2A adrenergic receptor (Homo sapiens) (UniProt P08913); assay: Inhibition of human adrenergic alpha2A receptor at 10 uM relative to control
Alpha-2A adrenergic receptor (Homo sapiens), sequence (P08913 whole entry): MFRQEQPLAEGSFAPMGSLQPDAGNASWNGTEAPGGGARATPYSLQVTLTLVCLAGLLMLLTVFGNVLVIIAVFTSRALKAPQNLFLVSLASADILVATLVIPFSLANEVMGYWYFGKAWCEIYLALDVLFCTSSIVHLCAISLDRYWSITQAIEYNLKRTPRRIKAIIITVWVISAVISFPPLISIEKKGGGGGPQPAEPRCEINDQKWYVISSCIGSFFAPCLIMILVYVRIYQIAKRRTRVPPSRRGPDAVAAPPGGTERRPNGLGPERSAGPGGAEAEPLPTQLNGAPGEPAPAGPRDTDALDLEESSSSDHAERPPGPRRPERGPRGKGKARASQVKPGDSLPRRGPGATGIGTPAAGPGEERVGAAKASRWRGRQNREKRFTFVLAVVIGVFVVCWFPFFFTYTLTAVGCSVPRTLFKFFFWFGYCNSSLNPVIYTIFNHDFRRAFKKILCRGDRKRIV

[12] = molecular target: Histamine H1 receptor (Homo sapiens) (UniProt P35367); assay: Inhibition of human histamine H1 receptor at 10 uM relative to control
[13] = Critical micellar concentration of the compound; format: physicochemical
[14] = molecular target: Protein max (Homo sapiens) (UniProt P61244); assay: Inhibition of MAX in HUVEC assessed as reduction of MAX transcriptional activity by genome-wide RNA-seq and ChlP-seq analysis; format: cell-based
Protein max (Homo sapiens), sequence (P61244 whole entry): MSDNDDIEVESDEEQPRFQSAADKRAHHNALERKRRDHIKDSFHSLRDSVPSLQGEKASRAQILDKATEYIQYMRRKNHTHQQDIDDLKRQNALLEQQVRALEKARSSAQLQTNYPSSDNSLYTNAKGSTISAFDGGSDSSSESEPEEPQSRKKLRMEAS

[15] = molecular target: NAD-dependent protein deacetylase sirtuin-2 (Homo sapiens) (UniProt Q8IXJ6); assay: Inhibition of human Sirtuin2 at 10 uM relative to control
hERG (KCNH2) = hERG (KCNH2) (Homo sapiens, UniProt Q12809); assay: Inhibition of human ERG at 10 uM relative to control
4T1.2 [16] = assay: Inhibition of tumor induced lymphangiogenesis response in mouse 4T1.2 cells implanted BALB/c mouse assessed as reduction in tumor associated lymphatic vessels at 25 mg/kg/day for 10 days by PROX1/podoplanin detection based immunofluorescent staining relative to control; format: functional; details: 4T1.2, 240 h
[17] = molecular target: Transcriptional repressor CTCF (Homo sapiens) (UniProt P49711); assay: Inhibition of CTCF in HUVEC assessed as reduction of CTCF transcriptional activity by genome-wide RNA-seq and ChlP-seq analysis; format: cell-based
Transcriptional repressor CTCF (Homo sapiens), sequence (P49711 whole entry): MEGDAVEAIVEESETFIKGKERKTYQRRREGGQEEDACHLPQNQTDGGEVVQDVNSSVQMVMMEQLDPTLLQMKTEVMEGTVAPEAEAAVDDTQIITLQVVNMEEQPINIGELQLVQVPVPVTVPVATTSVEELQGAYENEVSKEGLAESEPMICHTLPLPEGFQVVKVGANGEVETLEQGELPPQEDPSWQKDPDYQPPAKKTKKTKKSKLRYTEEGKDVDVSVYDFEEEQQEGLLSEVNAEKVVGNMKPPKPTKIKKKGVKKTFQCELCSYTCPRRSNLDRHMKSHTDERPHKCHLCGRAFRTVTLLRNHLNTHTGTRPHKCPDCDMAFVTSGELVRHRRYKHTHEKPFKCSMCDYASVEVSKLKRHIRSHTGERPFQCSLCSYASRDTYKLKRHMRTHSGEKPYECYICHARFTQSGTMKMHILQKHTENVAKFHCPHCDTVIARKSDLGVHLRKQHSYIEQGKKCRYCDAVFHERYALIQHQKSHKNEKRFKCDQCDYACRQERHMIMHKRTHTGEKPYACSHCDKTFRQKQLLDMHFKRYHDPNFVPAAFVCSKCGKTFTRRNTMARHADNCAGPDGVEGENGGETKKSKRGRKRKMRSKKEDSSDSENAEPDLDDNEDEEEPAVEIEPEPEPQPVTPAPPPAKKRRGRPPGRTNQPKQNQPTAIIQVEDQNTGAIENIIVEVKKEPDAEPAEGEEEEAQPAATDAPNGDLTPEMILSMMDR

[18] = molecular target: Sodium-dependent noradrenaline transporter (Homo sapiens) (UniProt P23975); assay: Inhibition of human NET at 10 uM relative to control
Sodium-dependent noradrenaline transporter (Homo sapiens), sequence (P23975 whole entry): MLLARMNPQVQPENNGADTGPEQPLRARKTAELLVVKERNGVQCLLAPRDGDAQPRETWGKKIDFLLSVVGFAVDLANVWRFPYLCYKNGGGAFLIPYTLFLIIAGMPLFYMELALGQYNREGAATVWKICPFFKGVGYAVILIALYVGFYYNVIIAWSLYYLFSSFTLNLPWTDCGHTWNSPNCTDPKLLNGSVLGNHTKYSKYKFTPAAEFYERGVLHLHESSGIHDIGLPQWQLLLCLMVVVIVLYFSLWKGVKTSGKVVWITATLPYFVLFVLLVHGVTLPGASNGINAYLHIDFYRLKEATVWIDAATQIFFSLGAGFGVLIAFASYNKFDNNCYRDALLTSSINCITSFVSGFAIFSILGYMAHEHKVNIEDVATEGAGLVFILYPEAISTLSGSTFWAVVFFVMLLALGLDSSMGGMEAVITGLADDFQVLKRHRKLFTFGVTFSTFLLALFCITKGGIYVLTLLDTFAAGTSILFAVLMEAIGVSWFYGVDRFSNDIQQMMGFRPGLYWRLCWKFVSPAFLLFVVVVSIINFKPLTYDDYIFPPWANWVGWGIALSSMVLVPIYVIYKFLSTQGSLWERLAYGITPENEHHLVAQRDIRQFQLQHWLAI

[19] = molecular target: Mu-type opioid receptor (Homo sapiens) (UniProt P35372); assay: Inhibition of human mu opioid receptor at 10 uM relative to control
Mu-type opioid receptor (Homo sapiens), sequence (P35372 whole entry): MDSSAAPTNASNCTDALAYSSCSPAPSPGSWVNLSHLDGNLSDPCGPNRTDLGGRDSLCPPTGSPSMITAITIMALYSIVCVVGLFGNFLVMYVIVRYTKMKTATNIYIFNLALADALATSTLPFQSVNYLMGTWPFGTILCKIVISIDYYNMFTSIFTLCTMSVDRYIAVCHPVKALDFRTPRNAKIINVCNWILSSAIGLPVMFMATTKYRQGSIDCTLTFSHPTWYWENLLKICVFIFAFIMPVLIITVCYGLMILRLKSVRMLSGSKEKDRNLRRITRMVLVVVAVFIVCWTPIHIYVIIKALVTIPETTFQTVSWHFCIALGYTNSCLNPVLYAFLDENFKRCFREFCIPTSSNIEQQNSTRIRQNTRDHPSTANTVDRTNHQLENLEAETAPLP

[20] = molecular target: Acetylcholine receptor subunit alpha (Homo sapiens) (UniProt P02708); assay: Inhibition of human nAChR alpha1 channel at 10 uM relative to control
Acetylcholine receptor subunit alpha (Homo sapiens), sequence (P02708 whole entry): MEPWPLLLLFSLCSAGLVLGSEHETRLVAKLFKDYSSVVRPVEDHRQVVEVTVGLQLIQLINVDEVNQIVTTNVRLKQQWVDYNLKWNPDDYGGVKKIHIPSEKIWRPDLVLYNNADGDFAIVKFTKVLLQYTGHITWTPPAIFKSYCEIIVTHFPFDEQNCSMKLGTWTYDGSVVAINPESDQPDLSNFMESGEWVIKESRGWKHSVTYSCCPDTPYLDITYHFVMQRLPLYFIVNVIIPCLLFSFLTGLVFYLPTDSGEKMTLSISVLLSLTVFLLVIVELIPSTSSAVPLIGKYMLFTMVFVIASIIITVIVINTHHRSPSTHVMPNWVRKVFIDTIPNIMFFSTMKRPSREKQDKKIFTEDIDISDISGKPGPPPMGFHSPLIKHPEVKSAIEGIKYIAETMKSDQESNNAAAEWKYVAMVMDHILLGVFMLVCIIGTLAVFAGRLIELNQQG

[21] = molecular target: Adenosine receptor A1 (Homo sapiens) (UniProt P30542); assay: Inhibition of human adenosine A1 receptor at 10 uM relative to control
Adenosine receptor A1 (Homo sapiens), sequence (P30542 whole entry): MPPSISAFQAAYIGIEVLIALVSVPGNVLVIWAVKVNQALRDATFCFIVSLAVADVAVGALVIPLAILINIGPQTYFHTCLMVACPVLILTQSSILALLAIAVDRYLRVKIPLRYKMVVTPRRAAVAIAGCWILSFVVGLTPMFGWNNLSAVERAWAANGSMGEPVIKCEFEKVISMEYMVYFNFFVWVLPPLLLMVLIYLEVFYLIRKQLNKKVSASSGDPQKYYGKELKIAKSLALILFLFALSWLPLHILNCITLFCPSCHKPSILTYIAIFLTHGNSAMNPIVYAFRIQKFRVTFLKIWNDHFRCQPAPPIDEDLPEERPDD

Danio rerio [22] = assay: Induction of arterial and venous genes dys-regulation in zebrafish larvae harboring fli1 a:eGFP,-6.5kdrl:mCherry assessed as effect on dll4 gene expression at 1.5 uM dosed starting from 16 hpf and measured at 24 and 48 hpf by qRT-PCR analysis; format: functional, organism-based
4T1.2 [23] = assay: Antitumor activity against mouse 4T1.2 cells implanted in BALB/c mouse assessed as median disease latency time at 25 mg/kg/day for 10 days (Rvb =33 days); format: functional
Cricetinae = assay: Inhibition of hamster KATP channel at 10 uM relative to control
[24] = molecular target: Endothelial transcription factor GATA-2 (Homo sapiens) (UniProt P23769); assay: Inhibition of GATA2 in HUVEC assessed as reduction of GATA2 transcriptional activity by genome-wide RNA-seq and ChlP-seq analysis; format: cell-based
[25] = molecular target: Glucocorticoid receptor (Homo sapiens) (UniProt P04150); assay: Inhibition of human glucocorticoid receptor at 10 uM relative to control
[26] = molecular target: Muscarinic acetylcholine receptor M2 (Homo sapiens) (UniProt P08172); assay: Inhibition of human muscarinic M2 receptor at 10 uM relative to control
4T1.2 [27] = assay: Antitumor activity against mouse 4T1.2 cells implanted in BALB/c mouse assessed as effect on tumor size at 25 mg/kg/day for 10 days; format: functional, organism-based
4T1.2 [28] = assay: Inhibition of tumor induced vascular response in mouse 4T1.2 cells implanted BALB/c mouse assessed as reduction in blood vessel coverage at 25 mg/kg/day for 10 days by bright field microscopy; format: functional, organism-based
[29] = molecular target: Myc proto-oncogene protein (Homo sapiens) (UniProt P01106); assay: Inhibition of c-MYC in HUVEC assessed as reduction of c-MYC transcriptional activity by genome-wide RNA-seq and ChlP-seq analysis; format: cell-based
Myc proto-oncogene protein (Homo sapiens), sequence (P01106 whole entry): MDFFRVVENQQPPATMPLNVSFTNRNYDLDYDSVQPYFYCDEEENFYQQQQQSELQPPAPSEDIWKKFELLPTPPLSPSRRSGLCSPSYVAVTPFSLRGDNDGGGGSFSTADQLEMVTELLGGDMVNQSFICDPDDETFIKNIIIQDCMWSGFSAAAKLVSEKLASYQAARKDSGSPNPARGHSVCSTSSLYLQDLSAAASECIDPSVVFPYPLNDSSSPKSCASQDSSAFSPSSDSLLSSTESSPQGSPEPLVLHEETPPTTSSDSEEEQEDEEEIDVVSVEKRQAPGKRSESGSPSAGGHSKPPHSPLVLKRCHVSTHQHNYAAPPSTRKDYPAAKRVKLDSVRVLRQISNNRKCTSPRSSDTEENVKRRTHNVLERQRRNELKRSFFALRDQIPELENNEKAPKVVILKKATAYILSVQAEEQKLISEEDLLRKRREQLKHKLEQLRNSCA

[30] = molecular target: Transcription factor SOX-17 (Homo sapiens) (UniProt Q9H6I2); assay: Inhibition of SOX17 (unknown origin) expressed in African green monkey COS7 cells assessed as reduction in SOX17 transcriptional activity at; format: cell-based
[31] = Cytotoxicity in African green monkey COS7 cells assessed as reduction in cell viability incubated for 24 hrs by Alamar blue dye based assay; parameters: species or system COS-7; details: chlorocebus aethiops
Danio rerio [32] = assay: Induction of arterial and venous genes dys-regulation in zebrafish larvae harboring fli1 a:eGFP,-6.5kdrl:mCherry assessed as effect on prox1a gene expression at 1.5 uM dosed starting from 16 hpf and measured at 24 and 48 hpf by qRT-PCR analysis; format: functional, organism-based
Danio rerio [33] = assay: Induction of arterial and venous genes dys-regulation in zebrafish larvae harboring fli1 a:eGFP,-6.5kdrl:mCherry assessed as effect on Ilt4 gene expression at 1.5 uM dosed starting from 16 hpf and measured at 24 and 48 hpf by qRT-PCR analysis; format: functional, organism-based
Danio rerio [34] = assay: Induction of arterial and venous genes dys-regulation in zebrafish larvae harboring fli1 a:eGFP,-6.5kdrl:mCherry assessed as effect on cdh5 gene expression at 1.5 uM dosed starting from 16 hpf and measured at 24 and 48 hpf by qRT-PCR analysis; format: functional, organism-based

inhibition [1]: 0%
inhibition [3]: inactive
inhibition (Rattus norvegicus): 1%
concentration at 240 h [5]: 55.2 µg/mL
inhibition [6]: 6%
inhibition [7]: -4.8%
inhibition [8]: 8%
inhibition [9]: -2%
inhibition [11]: 0%
inhibition [12]: 2%
CMC [13]: > 1000 µM
inhibition [14]: inactive
inhibition [15]: -5.2%
inhibition [17]: inactive
inhibition [18]: 34%
inhibition [19]: 3%
inhibition [20]: -4%
inhibition [21]: -8%
inhibition (Cricetinae): 10%
inhibition [24]: inactive
inhibition [25]: 12%
inhibition [26]: 13%
inhibition [29]: inactive
inhibition [30]: inactive
SMILES: O=C(O)c1c(O)cccc1CCc1ccc2ccccc2c1
Activity (Danio rerio [2]): Active
Activity (4T1.2 [4]): 67%
Activity (Danio rerio [10]): Active
inhibition at 10 µM (hERG (KCNH2)): -14%
inhibition in vivo at 25 mg/kg/day (4T1.2 [16]): 65%
Activity (Danio rerio [22]): Active
Time (4T1.2 [23]): 33 days
Activity (4T1.2 [27]): inactive
inhibition (4T1.2 [28]): Active
CC50 at 24 h [31]: 117 µM
Activity (Danio rerio [32]): Active
Activity (Danio rerio [33]): Active
Activity (Danio rerio [34]): Active
